Numbers after ± are expanded uncertainties.
Experiment: xn = mol fraction of the nth substance listed
Conditions: Liquid, Vibrating tube method

CCOC(=O)OCC [diethyl carbonate] + Cc1ccc(C)cc1
mass density [kg/m3]
Conditions | 100 kPa | 5000 kPa | 10000 kPa | 20000 kPa | 30000 kPa | 40000 kPa
288.15 K, x1 = 0.1014 | 876.7 ± 2 | 880.1 ± 2 | 883.7 ± 2 | 890.3 ± 2 | 896.1 ± 2 | 902.1 ± 2
288.15 K, x1 = 0.1346 | 879.5 ± 2 | 884.1 ± 2 | 887.8 ± 2 | 894.3 ± 2 | 900.3 ± 2 | 906.3 ± 2
288.15 K, x1 = 0.1949 | 887.5 ± 2 | 891.2 ± 2 | 894.8 ± 2 | 901.3 ± 2 | 907.5 ± 2 | 913.4 ± 2
288.15 K, x1 = 0.2767 | 898.3 ± 2 | 900.9 ± 2 | 904.5 ± 2 | 911.3 ± 2 | 917.4 ± 2 | 923.5 ± 2
288.15 K, x1 = 0.386 | 909.2 ± 2 | 913.4 ± 2 | 917.2 ± 2 | 924.1 ± 2 | 930.4 ± 2 | 936.6 ± 2
288.15 K, x1 = 0.4858 | 920.7 ± 2 | 924.7 ± 2 | 928.5 ± 2 | 935.5 ± 2 | 941.9 ± 2 | 948.3 ± 2
288.15 K, x1 = 0.5444 | 928.4 ± 2 | 931.5 ± 2 | 935.3 ± 2 | 942.5 ± 2 | 949.1 ± 2 | 955.4 ± 2
288.15 K, x1 = 0.5923 | 933.9 ± 2 | 937 ± 2 | 941 ± 2 | 948 ± 2 | 954.7 ± 2 | 961.2 ± 2
288.15 K, x1 = 0.6718 | 942.3 ± 2 | 946.4 ± 2 | 950.3 ± 2 | 957.5 ± 2 | 964.3 ± 2 | 970.9 ± 2
288.15 K, x1 = 0.7676 | 953.2 ± 2 | 957.4 ± 2 | 961.3 ± 2 | 968.7 ± 2 | 975.6 ± 2 | 982.3 ± 2
288.15 K, x1 = 0.8313 | 960.6 ± 2 | 964.8 ± 2 | 968.9 ± 2 | 976.4 ± 2 | 983.3 ± 2 | 990.1 ± 2
288.15 K, x1 = 0.9044 | 968.7 ± 2 | 973.1 ± 2 | 977.2 ± 2 | 984.7 ± 2 | 991.9 ± 2 | 998.6 ± 2
298.15 K, x1 = 0.1014 | 867.6 ± 2 | 871.9 ± 2 | 875.1 ± 2 | 882 ± 2 | 888.2 ± 2 | 894.3 ± 2
298.15 K, x1 = 0.1346 | 871.5 ± 2 | 875.8 ± 2 | 879 ± 2 | 885.9 ± 2 | 892.3 ± 2 | 898.4 ± 2
298.15 K, x1 = 0.1949 | 878.1 ± 2 | 882.4 ± 2 | 885.8 ± 2 | 892.7 ± 2 | 899.3 ± 2 | 905.3 ± 2
298.15 K, x1 = 0.2767 | 887.5 ± 2 | 892 ± 2 | 895.4 ± 2 | 902.5 ± 2 | 909.1 ± 2 | 915.3 ± 2
298.15 K, x1 = 0.386 | 899.8 ± 2 | 904.4 ± 2 | 907.7 ± 2 | 915 ± 2 | 921.9 ± 2 | 928.2 ± 2
298.15 K, x1 = 0.4858 | 910.7 ± 2 | 915.2 ± 2 | 918.8 ± 2 | 926.3 ± 2 | 933.2 ± 2 | 939.6 ± 2
298.15 K, x1 = 0.5444 | 916.8 ± 2 | 922 ± 2 | 925.6 ± 2 | 933.2 ± 2 | 940.2 ± 2 | 946.6 ± 2
298.15 K, x1 = 0.5923 | 922.8 ± 2 | 927.4 ± 2 | 931.1 ± 2 | 938.5 ± 2 | 945.8 ± 2 | 952.3 ± 2
298.15 K, x1 = 0.6718 | 931.7 ± 2 | 936.5 ± 2 | 940.3 ± 2 | 947.8 ± 2 | 955.1 ± 2 | 961.8 ± 2
298.15 K, x1 = 0.7676 | 942.4 ± 2 | 947.3 ± 2 | 951 ± 2 | 959 ± 2 | 966.3 ± 2 | 973.1 ± 2
298.15 K, x1 = 0.8313 | 949.8 ± 2 | 954.7 ± 2 | 958.4 ± 2 | 966.4 ± 2 | 973.8 ± 2 | 980.8 ± 2
298.15 K, x1 = 0.9044 | 957.6 ± 2 | 962.7 ± 2 | 966.6 ± 2 | 974.7 ± 2 | 982.2 ± 2 | 989.1 ± 2
308.15 K, x1 = 0.1014 | 858.7 ± 2 | 862.8 ± 2 | 866.6 ± 2 | 873.8 ± 2 | 880.4 ± 2 | 886.6 ± 2
308.15 K, x1 = 0.1346 | 862.5 ± 2 | 866.7 ± 2 | 870.4 ± 2 | 877.7 ± 2 | 884.5 ± 2 | 890.8 ± 2
308.15 K, x1 = 0.1949 | 868.9 ± 2 | 873 ± 2 | 876.5 ± 2 | 884.2 ± 2 | 891.1 ± 2 | 897.5 ± 2
308.15 K, x1 = 0.2767 | 878.2 ± 2 | 882.4 ± 2 | 886.5 ± 2 | 893.8 ± 2 | 900.8 ± 2 | 907.3 ± 2
308.15 K, x1 = 0.386 | 890.1 ± 2 | 894.5 ± 2 | 898.5 ± 2 | 906.2 ± 2 | 913.3 ± 2 | 919.9 ± 2
308.15 K, x1 = 0.4858 | 900.7 ± 2 | 905.2 ± 2 | 909.2 ± 2 | 917.2 ± 2 | 924.5 ± 2 | 931.2 ± 2
308.15 K, x1 = 0.5444 | 907.2 ± 2 | 911.7 ± 2 | 916 ± 2 | 923.9 ± 2 | 931.3 ± 2 | 938.1 ± 2
308.15 K, x1 = 0.5923 | 912.6 ± 2 | 916.9 ± 2 | 921.4 ± 2 | 929.4 ± 2 | 936.8 ± 2 | 943.7 ± 2
308.15 K, x1 = 0.6718 | 921.3 ± 2 | 925.7 ± 2 | 930.3 ± 2 | 938.4 ± 2 | 945.9 ± 2 | 952.9 ± 2
308.15 K, x1 = 0.7676 | 931.8 ± 2 | 936.5 ± 2 | 940.9 ± 2 | 949.2 ± 2 | 957 ± 2 | 964.1 ± 2
308.15 K, x1 = 0.8313 | 939 ± 2 | 943.6 ± 2 | 948.1 ± 2 | 956.6 ± 2 | 964.2 ± 2 | 971.6 ± 2
308.15 K, x1 = 0.9044 | 946.7 ± 2 | 951.5 ± 2 | 956.2 ± 2 | 964.5 ± 2 | 972.6 ± 2 | 979.9 ± 2
